Data taken from patent US12616203B2, “Use of 3-isoxazolidinones compounds as selective herbicides” (FMC Corporation, priority 2014, dated 2026).
Read-outs that look alike come from different tables or passages of the source.

Columns and labels:
[1] = system: Pennsylvania smartweed (PS); assay: PRE greenhouse, 2,4-DC + sulfentrazone (Tables 3-3B), % control; type: in vivo, Polygonum pennsylvanicum; conditions: 28 DAT, g ai/ha by row: r7-35 2,4-DC 31.2/62.5/125/250/375 (3 rows each) + sulfentrazone 105/210/315 (cycling), r37-41 2,4-DC 31.2/62.5/125/250/375, r42-44 sulfentrazone 105/210/315
Protocol: (§1) Test compositions containing 2,4-DC Example 1B and sulfentrazone (Spartan® 4F, 39.6% active ingredient, FMC Corp.) and mixtures of 2-(2,4-dichlorophenyl)methyl-4,4-dimethyl-3-isoxazolidinone and sulfentrazone, were diluted with water to provide the appropriate test rate concentration.
(§2) The test weeds were Pennsylvania smartweed (PS) (Polygonum pennsylvanicum), Palmer amaranth (PA) (Amaranthus palmeri), velvetleaf (VL) (Abutilon theophrasti), green foxtail (GF) (Setaria viridis), morningglory (MG) (Ipomoea spp.), yellow nutsedge (YN) (Cyperus esculentus), purple nutsedge (PN) (Cyperus rotundus), and benghal dayflower (BD) (Commelina benghalensis). Crops included in the evaluation were corn, wheat, and cowpea. […]
(§3) The application rates are those shown in Table 3, 3A, an d 3B below for the individual herbicidal solutions and the herbicide compositions of the present invention. […] The control of weeds was evaluated in each experimental test at 28 days after treatment (DAT), 14 DAT for crops. […] Percent weed control was determined by a method similar to the 0 to 100 rating system disclosed in “Research Methods in Weed Science,” 2nd ed., B. Truelove, Ed.; Southern Weed Science Society; Auburn University, Auburn, Ala., 1977.

[2] = system: Palmer amaranth (PA); assay: PRE greenhouse, 2,4-DC + sulfentrazone, % control; type: in vivo, Amaranthus palmeri; conditions: 28 DAT, g ai/ha by row: r7-35 2,4-DC 31.2/62.5/125/250/375 (3 rows each) + sulfentrazone 105/210/315 (cycling), r37-41 2,4-DC 31.2/62.5/125/250/375, r42-44 sulfentrazone 105/210/315
Protocol: as §1, §2, §3

[3] = system: purple nutsedge (PN); assay: PRE greenhouse, 2,4-DC + sulfentrazone, % control; type: in vivo, Cyperus rotundus; conditions: 28 DAT, g ai/ha by row: r8-16 2,4-DC 50/100/200 (3 rows each) + sulfentrazone 105/210/315 (cycling)
Protocol: as §1, §2, §3

[4] = system: weeds; corn, wheat, cotton, cowpea, and bush bean; assay: Ex42 PRE greenhouse; type: in vivo; conditions: crop and rate in the words
Source text: Thereafter flats were watered and fertilized routinely.

[5] = system: morningglory (MG); assay: PRE greenhouse, 2,4-DC + sulfentrazone, % control; type: in vivo, Ipomoea spp.; conditions: 28 DAT, g ai/ha by row: r7-35 2,4-DC 31.2/62.5/125/250/375 (3 rows each) + sulfentrazone 105/210/315 (cycling), r37-41 2,4-DC 31.2/62.5/125/250/375, r42-44 sulfentrazone 105/210/315
Protocol: as §1, §2, §3

[6] = system: yellow nutsedge (YN); assay: PRE greenhouse, 2,4-DC + sulfentrazone, % control; type: in vivo, Cyperus esculentus; conditions: 28 DAT, g ai/ha by row: r8-16 2,4-DC 50/100/200 (3 rows each) + sulfentrazone 105/210/315 (cycling)
Protocol: as §1
(§4) The test weeds were Pennsylvania smartweed (PS) (Polygonum pennsylvanicum), Palmer amaranth (PA) (Amaranthus palmeri), velvetleaf (VL) (Abutilon theophrasti), green foxtail (GF) (Setaria viridis), morningglory (MG) (Ipomoea spp.), yellow nutsedge (YN) (Cyperus esculentus), purple nutsedge (PN) (Cyperus rotundus), and benghal dayflower (BD) (Commelina benghalensis). Crops included in the evaluation were corn, wheat, and cowpea.
(§5) For pre-emergence testing, four disposable fiber flats (6″ by 10″) for each rate of application of each herbicide solution were filled with top soil, to which seeds of each species were planted in furrows made by a template pressed on the top of the soil. The furrows with crop/weed seeds were covered with soil and were watered well before application of the test compounds. Flats designated for treatment were placed in a spray chamber having a static platform and a movable sprayer and height of the spray nozzle was 10.5 inches above the soil level. Once the sprayer was calibrated using water for spray volume of 30 gallons per acre, flats were sprayed with sprayer at a speed to receive a coverage equivalent of 30 gallons per acre.
The application rates are those shown in Table 3, 3A, an d 3B below for the individual herbicidal solutions and the herbicide compositions of the present invention. The pre-emergence flats were immediately placed in the greenhouse and watered lightly after treatment for herbicide activation. Thereafter they were regularly watered and feterilized for the duration of the test. The control of weeds was evaluated in each experimental test at 28 days after treatment (DAT), 14 DAT for crops. The results, shown as an average of the replications, were compared with results observed in untreated control flats in the same tests. Percent weed control was determined by a method similar to the 0 to 100 rating system disclosed in “Research Methods in Weed Science,” 2nd ed., B. Truelove, Ed.; Southern Weed Science Society; Auburn University, Auburn, Ala., 1977.

[7] = system: Corn; conditions: 21 DAT, PRE
Source text: (Ipomoea spp.); Italian ryegrass (Lolium perenne L. ssp. multiflorum, LOLMU). Crops tested included corn, wheat, cotton, cowpea, and bush bean.
Palmer amaranth, common ragweed, Pennsylvania smartweed, velvetleaf, wild oat, green foxtail, morningglory, and Italian ryegrass were screened. […] Thereafter flats were watered and fertilized routinely.

[8] = system: sedges; assay: Ex26 PRE greenhouse; type: in vivo; conditions: 28 DAT, weed and rate in the words
Source text: Treatments were applied at the time of planting to yellow nutsedge, purple nutsedge, and benghal dayflower. […] Flats were watered and fertilized routinely after treatment application.

[9] = system: velvetleaf (VL); assay: PRE greenhouse, 2,4-DC + sulfentrazone, % control; type: in vivo, Abutilon theophrasti; conditions: 28 DAT, g ai/ha by row: r7-35 2,4-DC 31.2/62.5/125/250/375 (3 rows each) + sulfentrazone 105/210/315 (cycling), r37-41 2,4-DC 31.2/62.5/125/250/375, r42-44 sulfentrazone 105/210/315
Protocol: as §1, §2, §3

[10] = system: green foxtail (GF); assay: PRE greenhouse, 2,4-DC + sulfentrazone, % control; type: in vivo, Setaria viridis; conditions: 28 DAT, g ai/ha by row: r7-35 2,4-DC 31.2/62.5/125/250/375 (3 rows each) + sulfentrazone 105/210/315 (cycling)
Protocol: as §1, §2, §3

[11] = system: weeds; assay: Ex10 PRE greenhouse; type: in vivo; conditions: 28 DAT, weed and rate in the words
Source text: Treatments 1-12 of 2,4-DC and aclonifen tank-mix combinations follow same rates listed above. […] Sulfentrazone (Spartan 4F® 39.6%) at 280 g ai/ha, pendimethalin (Prowl 3.3®EC, 37.4%) at 784 g ai/ha, or S-metolachlor (Dual II Magnum® 82.4%) at 1084 g ai/ha were applied as commercial standards. Treatments were replicated 3 times and flats were watered after planting but before the treatment and lightly watered after treatment application. Thereafter flats were watered and fertilized routinely. […] Shepherd's-purse was rated at 21 and 28 DAT only, due to delayed emergence.

[12] = system: benghal dayflower (BD); assay: PRE greenhouse, 2,4-DC + sulfentrazone, % control; type: in vivo, Commelina benghalensis; conditions: 28 DAT, g ai/ha by row: r8-16 2,4-DC 50/100/200 (3 rows each) + sulfentrazone 105/210/315 (cycling)
Protocol: as §1, §4, §5
The application rates are those shown in Table 3, 3A, an d 3B below for the individual herbicidal solutions and the herbicide compositions of the present invention. The pre-emergence flats were immediately placed in the greenhouse and watered lightly after treatment for herbicide activation. […] The control of weeds was evaluated in each experimental test at 28 days after treatment (DAT), 14 DAT for crops. […] Percent weed control was determined by a method similar to the 0 to 100 rating system disclosed in “Research Methods in Weed Science,” 2nd ed., B. Truelove, Ed.; Southern Weed Science Society; Auburn University, Auburn, Ala., 1977.

[13] = system: weeds; Sugarcane (CTC20); assay: Ex23 PRE greenhouse; conditions: 28 DAT, weed and rate in the words
Protocol: (Ipomoea spp). The tested crop in this study was Sugarcane (CTC20).
Sugarcane was direct seeded into 6″ plastic pots using 3-4″ sugarcane setts, oriented bud up, with bud leaf shield removed. 2,4 DC and sulfentrazone were applied alone or combined as tank-mix at each rate mentioned below. […] Treatments were replicated 3 times. […] Thereafter flats were watered and fertilized routinely. […] Visual percent sugarcane injury was recorded at 21 and 28 DAT, using a scale of 0 (no injury, observed as bleaching, stunting or necrosis) to 100 (complete plant death).

[14] = r17-19 2,4-DC 50/100/200, r20-22 sulfentrazone 105/210/315, 105 g ai/ha
[15] = r17-19 2,4-DC 50/100/200, r20-22 sulfentrazone 105/210/315, 315 g ai/ha
[16] = r17-19 2,4-DC 50/100/200, r20-22 sulfentrazone 105/210/315, 210 g ai/ha

## Cc1nn(-c2cc(NS(C)(=O)=O)c(Cl)cc2Cl)c(=O)n1C(F)F [sulfentrazone]
[1]
  % Control PS: 100%
[2]
  % Control PA: 100%
[3]; [14]
  % Control PN: 77%
[3]; [15]
  % Control PN: 83%
[4]
  crop safety in words: alone was safe on corn and bush bean only at 105 g, wheat and cowpea at 105 or 210 g 14 DAT
[5]
  % Control MG: 100%
[6]; [14]
  % Control YN: 85%
[6]; [16]
  % Control YN: 95%
[6]; [15]
  % Control YN: 100%
[7]; sulfentrazone 105 g ai/ha
  crop injury, Sulfentrazone alone: 3%
[7]; sulfentrazone 210 g ai/ha
  crop injury, Sulfentrazone alone: 10%
[7]; sulfentrazone 315 g ai/ha
  crop injury, Sulfentrazone alone: 38%
[8]
  weed control in words: alone controlled yellow nutsedge at all rates, benghal dayflower at 210 or 315 g and did not control purple nutsedge at any rate
[9]
  % Control VL: 100%
[10]; r37-41 2,4-DC 31.2/62.5/125/250/375, r42-44 sulfentrazone 105/210/315, 105 g ai/ha
  % Control GF: 84%
[10]; r37-41 2,4-DC 31.2/62.5/125/250/375, r42-44 sulfentrazone 105/210/315, 210 g ai/ha
  % Control GF: 100%
[11]
  weed control in words: at 280 g provided control of all weeds except quackgrass, annual bluegrass, and blackgrass
[12]; [14]
  % Control BD: 72%
[12]; [16]
  % Control BD: 88%
[12]; [15]
  % Control BD: 90%
[13]
  weed control in words: alone controlled hairy beggarticks at 315 g; all other weeds were controlled with all rates
